Type in all cases: functional
Test [1] in a line: Human tumor selectivity was measured as zone unit differential between (H125) lung small cell carcinoma and (CEM) lymphocytic leukemia in disk diffusion soft agar colony formation assay at a concentration of 75 ug/disk.
The nature of test [2]: Murine tumor cell selectivity as zone unit differential between (C38) colon adenocarcinoma and ([…]) murine cell line in disk diffusion soft agar colony formation assay at 75 ug/disk. For orientation: A growth-free zone around the sample is the usual read-out of agar diffusion tests.
Test [3] can be described thus: Murine tumor cell selectivity was measured as zone unit differential between (C38) colon adenocarcinoma and (CFU) normal bone marrow in disk diffusion soft agar colony formation assay at a concentration of 75 ug/disk.
Test [4] is described as follows: Murine tumor cell selectivity as zone unit differential between ([…]) murine cell line and (CFU) normal bone marrow in disk diffusion soft agar colony formation assay at 75 ug/disk.

In the case of `CC[C@H]1C=CCC[C@@]2(C[C@@H]3CC[C@@H]4[C@H](C(=O)OCCCCCCCCCCCC(=O)N(CCCN)C[C@@H](O)CCN)[C@]5(CCC[C@@H](C)O5)NC(=[N+]34)N2)O1.Cl.Cl.[Cl-]`, the Selectivity worked out at 100 in test [1], 50 in test [2], 100 in test [3] and 50 in test [4].
As to `CC[C@H]1C=CCC[C@@]2(C[C@@H]3CC[C@@H]4[C@H](C(=O)OCCCCCCCCCCCCCCC(=O)N(CCCN)C[C@@H](O)CCN)[C@]5(CCC[C@@H](C)O5)NC(=[N+]34)N2)O1.Cl.Cl.[Cl-]`, the Selectivity in test [1] is recorded as 400; in test [2], 50; in test [3], 150; in test [4], 100.
Turning to `CC[C@H]1C=CCC[C@@]2(C[C@@H]3CC[C@@H]4[C@H](C(=O)OCCCCCCCC(=O)O)[C@]5(CCC[C@@H](C)O5)NC(=[N+]34)N2)O1.[Cl-]` [GUANIDINO ACID], the Selectivity in test [1] is -50; in test [2], 100; in test [3], 200; in test [4], 100.
On to `CC[C@H]1C=CCC[C@@]2(C[C@@H]3CC[C@@H]4[C@@H](C(=O)[O-])[C@]5(CCC[C@@H](C)O5)NC(=[N+]34)N2)O1.Cl`, for which the Selectivity in test [1] was 50; in test [2], -100; in test [3], 200; in test [4], 300.
With `CC[C@H]1C=CCC[C@@]2(C[C@@H]3CC[C@@H]4[C@H](C(=O)OCCCCCCCCCCCCCCCCCC(=O)N(CCCN)C[C@@H](O)CCN)[C@]5(CCC[C@@H](C)O5)NC(=[N+]34)N2)O1.Cl.Cl.[Cl-]`, the Selectivity in test [1] is 150; in test [2], 50; in test [3], 150; in test [4] it was 100.
Turning to `CC[C@H]1C=CCC[C@@]2(C[C@@H]3CC[C@@H]4[C@H](C(=O)OCCCCCCCCCCCCCCCCCC(=O)O)[C@]5(CCC[C@@H](C)O5)NC(=[N+]34)N2)O1.[Cl-]` [GUANIDINO ACID], the Selectivity turned out to be 150 in test [1], 100 in test [2], 100 in test [3] and 0 in test [4].
Regarding `CC[C@H]1C=CCC[C@@]2(C[C@@H]3CC[C@@H]4[C@H](C(=O)OCCCCCCCCCCCCCCC(=O)[O-])[C@]5(CCC[C@@H](C)O5)NC(=[N+]34)N2)O1.Cl` [GUANIDINO ACID], the Selectivity is on record as 100 in test [1], 200 in test [2], 100 in test [3] and -100 in test [4].
On to `CC[C@H]1C=CCC[C@@]2(C[C@@H]3CC[C@@H]4[C@H](C(=O)OCCCCCC(=O)[O-])[C@]5(CCC[C@@H](C)O5)NC(=[N+]34)N2)O1.Cl` [GUANIDINO ACID], for which the Selectivity in test [1] is 150; in test [2] it was -200; in test [3], 0; in test [4], 200.
The corresponding values for `CC[C@H]1C=CCC[C@@]2(C[C@@H]3CC[C@H]4[C@@H](C(=O)OCCCCCCCCCCCCCCCC(=O)N(CCCN)C[C@@H](O)CCN)[C@@]5(CCC[C@@H](C)O5)NC(=[N+]34)N2)O1.Cl.Cl.[Cl-]` are 100, -50, 0 and 50.
Regarding `CC[C@H]1C=CCC[C@@]2(C[C@@H]3CC[C@H]4[C@@H](C(=O)OCCCCCCCCCCCCCCCC(=O)O)[C@@]5(CCC[C@@H](C)O5)NC(=[N+]34)N2)O1.[Cl-]`, the Selectivity was 150 in test [1], 100 in test [2], 50 in test [3] and -50 in test [4].
The corresponding values for `CC[C@H]1C=CCC[C@@]2(C[C@@H]3CC[C@@H]4[C@H](C(=O)OCCCCCCCCCCCC(=O)O)[C@]5(CCC[C@@H](C)O5)NC(=[N+]34)N2)O1.[Cl-]` [GUANIDINO ACID] are 200, 200, 250 and 50.
The corresponding values for `CC[C@H]1C=CCC[C@@]2(C[C@@H]3CC[C@@H]4[C@H](C(=O)OCCCCCCCCCCCCCCCC(=O)O)[C@]5(CCC[C@@H](C)O5)NC(=[N+]34)N2)O1.[Cl-]` [CRAMBESCIDIN 657] are 100, 150, 200 and 50.
As to `CC[C@H]1C=CCC[C@@]2(C[C@@H]3CC[C@H]4[C@H](C(=O)OCCCCCCCCCCCCCCCC(=O)N(CCCN)C[C@@H](O)CCN)[C@@]5(CCC[C@@H](C)O5)NC(=[N+]34)N2)O1.Cl.Cl.[Cl-]`, the Selectivity in test [1] came to 50; in test [2] it was 0; in test [3], 50; in test [4], 50.
For `CC[C@H]1C=CCC[C@@]2(C[C@@H]3CC[C@@H]4[C@H](C(=O)OCCCCCC(=O)N(CCCN)C[C@@H](O)CCN)[C@]5(CCC[C@@H](C)O5)NC(=[N+]34)N2)O1.Cl.Cl.[Cl-]`, the Selectivity in test [1] was -50; in test [2], -300; in test [3], 0; in test [4], 300.
For `CC[C@H]1C=CCC[C@@]2(C[C@@H]3CC[C@@H]4[C@H](C(=O)OCCCCCCCC(=O)N(CCCN)C[C@@H](O)CCN)[C@]5(CCC[C@@H](C)O5)NC(=[N+]34)N2)O1.Cl.Cl.[Cl-]`, in that order: -50, -200, 100 and 300.
The corresponding values for `CC[C@H]1C=CCC[C@@]2(C[C@@H]3CC[C@@H]4[C@H](C(=O)OCCCCCCCCCCCCCCCC(=O)N(CCCN)C[C@@H](O)CCN)[C@]5(CCC[C@@H](C)O5)NC(=N2)N34)O1.Cl.Cl.Cl` [CRAMBESCIDIN 800 TRIHYDROCHLORIDE] are 50, -200, -50 and 150.
The corresponding values for `CC[C@H]1C=CCC[C@@]2(C[C@@H]3CC[C@@H]4[C@H](C(=O)OCCCCCCCCCC(=O)O)[C@]5(CCC[C@@H](C)O5)NC(=[N+]34)N2)O1.[Cl-]` [GUANIDINO ACID] are 50, 300, 100 and -200.
As to `CC[C@H]1C=CCC[C@@]2(C[C@@H]3CC[C@@H]4[C@H](C(=O)OCCCCCCCCCC(=O)N(CCCN)C[C@@H](O)CCN)[C@]5(CCC[C@@H](C)O5)NC(=[N+]34)N2)O1.Cl.Cl.[Cl-]`, the Selectivity in test [1] is reported as -50; in test [2] it was 0; in test [3], 100; in test [4], 300.

The record behind these values is ChEMBL document CHEMBL1147463, “Synthesis and anticancer activity of side chain analogs of the crambescidin alkaloids” (2004).
